Among the data in ChEMBL document CHEMBL5038591, “Identification of a Novel TAR RNA-Binding Protein 2 Modulator with Potential Therapeutic Activity against Hepatocellular Carcinoma” (J Med Chem, 2021) are IC50, Activity and inhibition values, retold here.

Calls of active or inactive are those of the source. The rule behind the calls is not given here. Where only a bound is given, the exact number is not on record here.

Series [1] in a line: Antiproliferative activity against human QSG7701 cells incubated for 24 hrs by alamar blue assay. In kind it is functional, cell-based. The conditions noted are these: QSG7701, 24 h. For orientation: Alamar Blue is a resazurin reagent that responds to reducing activity.
The subject of series [2] is SK-HEP1. Briefly: Antiproliferative activity against human SK-HEP1 cells incubated for 24 hrs by alamar blue assay. In kind it is functional, cell-based. Conditions: SK-HEP1, 24 h.
In series [3] the test system is HeLa. Briefly: Antiproliferative activity against human HeLa cells assessed as increase in miR-21 biogenesis level measured after 24 hrs by luciferase assay. The class given is functional, cell-based.
A further series concerns HepG2. Briefly: Antiproliferative activity against human HepG2 cells at 20 uM incubated for 24 hrs by alamar blue assay. In kind it is functional, cell-based.
The test system of series [4] is HeLa. In words: Antiproliferative activity against human HeLa cells at 20 uM incubated for 24 hrs by alamar blue assay. The class given is functional, cell-based.
Series [5] deals with MHCC97. Briefly: Antiproliferative activity against human MHCC97 cells at 20 uM incubated for 24 hrs by alamar blue assay. The class given is functional, cell-based.
A further series has as its system Huh-7. Briefly: Antiproliferative activity against human Huh-7 cells at 20 uM incubated for 24 hrs by alamar blue assay. The class given is functional, cell-based.
The test system of series [6] is SK-HEP1. Briefly: Antiproliferative activity against human SK-HEP1 cells at 20 uM incubated for 24 hrs by alamar blue assay. In kind it is functional, cell-based.
Series [7] deals with SK-HEP1. In words: Antiproliferative activity against human SK-HEP1 cells assessed as increase in miR-106b-5p level at 20 uM by qRT-PCR analysis. The class given is functional, cell-based. On the technique in general: In qPCR the cycle at which signal appears reflects the starting amount.
The subject of series [8] is SK-HEP1. In words: Antiproliferative activity against human SK-HEP1 cells assessed as decrease in miR135a-5p level at 20 uM by qRT-PCR analysis. In kind it is functional, cell-based.
In series [9] the test system is MHCC97. In words: Antitumor activity in human MHCC97 cells xenografted in SCID mouse assessed as suppression of tumor growth at 20 mg/kg, ip administered once every 3 day for 30 days by bioluminescence analysis. The class given is functional, organism-based. Conditions: time 30.0 day. (In xenograft studies the graft and the host belong to different species.)
The subject of series [10] is SK-HEP1. Briefly: Antiproliferative activity against human SK-HEP1 cells assessed as increase in miR-21-5p level at 20 uM by qRT-PCR analysis. In kind it is functional, cell-based.
Series [11] deals with MHCC97. Briefly: Antitumor activity in human MHCC97 cells xenografted in SCID mouse assessed as reduction in infiltration of inflammatory cells in left middle lobe of liver at 20 mg/kg, ip measured after 30 days by H and E staining based immunohistochemical analysis. In kind it is functional, organism-based. The conditions noted are these: time 30.0 day.
In series [12] the test system is SK-HEP1. In words: Antiproliferative activity against human SK-HEP1 cells assessed as increase in miR-22-5p level at 20 uM by qRT-PCR analysis. The class given is functional, cell-based.
For series [13], the system named is MHCC97. Briefly: Antimetastatic activity against human MHCC97 cells xenografted in SCID mouse assessed as decrease in liver metastasis at 20 mg/kg, ip administered once every 3 days and measured after 10 days. The class given is functional, organism-based. Conditions: time 10.0 day.
Series [14] deals with SK-HEP1. Briefly: Antiproliferative activity against human SK-HEP1 cells assessed as increase in miR-26a-5p level at 20 uM by qRT-PCR analysis. The class given is functional, cell-based.
Series [15] concerns SK-HEP1. In words: Antiproliferative activity against human SK-HEP1 cells assessed as decrease in miR-30a-5p level at 20 uM by qRT-PCR analysis. In kind it is functional, cell-based.
Series [16] has as its system MHCC97. In words: Antitumor activity against human MHCC97 cells xenografted in SCID mouse assessed as decrease in tumor size at 20 mg/kg, ip administered once every 3 days and measured after 10 days. In kind it is functional, organism-based. Conditions: time 10.0 day.
For series [17], the target named is DNA topoisomerase 2-beta (Homo sapiens) (UniProt Q02880). In words: Binding affinity to TOP2B (unknown origin) at 30 uM incubated for 2 hrs by pull down assay.
In series [18] the test system is SK-HEP1. Briefly: Inhibition of cell migration in human SK-HEP1 cells assessed as reduction in cell migration at 20 uM measured after 12 hrs using crystal violet staining inverted microscope based transwell assay. In kind it is functional.
The test system of series [19] is SK-HEP1. In words: Antiproliferative activity against human SK-HEP1 cells at 20 uM measured by crystal violet dye based colony formation assay. In kind it is functional, cell-based.
The species entered for another series is Homo sapiens. Briefly: Binding affinity to PIWIL3 (unknown origin) at 30 uM incubated for 2 hrs by pull down assay.
Series [20] relates to MHCC97. In words: Antimetastatic activity against human MHCC97 cells xenografted in SCID mouse assessed as decrease in liver metastasis at 40 mg/kg, ip administered once every 3 days and measured after 10 days. In kind it is functional, organism-based. The conditions noted are these: time 10.0 day.
Series [21] is described as follows: Toxicity in SCID mouse xenografted with human MHCC97 cells assessed as increase in body weight at 40 mg/kg, ip administered once every 3 day for 30 days. The class given is organism-based. The conditions noted are these: in vivo, 720 h, time 30 day.

DNA topoisomerase 2-beta (Homo sapiens), sequence (Q02880 whole entry): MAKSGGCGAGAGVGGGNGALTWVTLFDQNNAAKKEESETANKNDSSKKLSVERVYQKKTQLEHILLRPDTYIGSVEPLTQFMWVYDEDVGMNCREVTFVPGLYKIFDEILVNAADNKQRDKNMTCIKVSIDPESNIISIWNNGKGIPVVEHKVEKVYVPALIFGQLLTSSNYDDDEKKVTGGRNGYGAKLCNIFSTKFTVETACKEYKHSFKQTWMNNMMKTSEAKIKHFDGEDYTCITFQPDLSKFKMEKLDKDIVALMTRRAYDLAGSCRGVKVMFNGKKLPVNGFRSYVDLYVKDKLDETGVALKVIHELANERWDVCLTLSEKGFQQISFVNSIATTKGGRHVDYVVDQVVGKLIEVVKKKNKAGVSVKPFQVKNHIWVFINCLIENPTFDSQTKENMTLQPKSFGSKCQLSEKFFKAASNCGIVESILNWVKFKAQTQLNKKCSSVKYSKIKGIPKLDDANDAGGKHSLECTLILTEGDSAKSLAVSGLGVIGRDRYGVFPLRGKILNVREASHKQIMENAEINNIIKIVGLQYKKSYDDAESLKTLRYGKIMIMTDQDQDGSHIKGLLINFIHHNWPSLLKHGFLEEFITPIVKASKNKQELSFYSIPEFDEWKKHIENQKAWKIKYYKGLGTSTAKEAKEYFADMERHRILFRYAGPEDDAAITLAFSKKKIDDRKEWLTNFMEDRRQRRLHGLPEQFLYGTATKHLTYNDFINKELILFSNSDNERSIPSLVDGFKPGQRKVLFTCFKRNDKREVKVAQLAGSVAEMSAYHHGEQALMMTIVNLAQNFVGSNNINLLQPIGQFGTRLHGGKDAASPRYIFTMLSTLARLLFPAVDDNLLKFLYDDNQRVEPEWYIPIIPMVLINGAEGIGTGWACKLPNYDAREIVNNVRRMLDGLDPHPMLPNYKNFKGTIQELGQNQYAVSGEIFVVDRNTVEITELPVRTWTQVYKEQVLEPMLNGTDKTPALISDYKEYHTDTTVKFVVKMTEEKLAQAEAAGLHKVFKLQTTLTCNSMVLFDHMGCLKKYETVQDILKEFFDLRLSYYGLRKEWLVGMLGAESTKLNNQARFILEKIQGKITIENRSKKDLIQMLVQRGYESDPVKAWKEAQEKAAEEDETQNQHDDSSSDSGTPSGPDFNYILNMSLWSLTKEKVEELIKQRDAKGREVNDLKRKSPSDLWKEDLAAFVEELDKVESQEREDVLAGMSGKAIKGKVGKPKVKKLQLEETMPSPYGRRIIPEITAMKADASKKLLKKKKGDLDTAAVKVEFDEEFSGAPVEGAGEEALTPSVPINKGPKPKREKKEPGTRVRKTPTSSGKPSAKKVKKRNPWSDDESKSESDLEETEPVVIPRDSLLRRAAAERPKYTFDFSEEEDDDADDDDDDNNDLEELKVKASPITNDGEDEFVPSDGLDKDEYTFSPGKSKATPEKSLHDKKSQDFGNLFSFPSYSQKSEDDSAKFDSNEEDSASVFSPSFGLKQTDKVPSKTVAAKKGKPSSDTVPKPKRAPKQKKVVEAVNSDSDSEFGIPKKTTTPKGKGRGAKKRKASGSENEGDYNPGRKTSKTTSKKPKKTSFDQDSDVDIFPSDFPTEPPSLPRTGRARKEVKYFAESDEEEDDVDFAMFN

As a reminder, the IC50 is the concentration that gives 50% inhibition. Take `COC(=O)c1cc2c(c(OC)c1-c1ccc(N(C)S(=O)(=O)c3ccc(F)cc3)cc1)OCO2`: the values for the IC50 (in series [1]; with SK-HEP1 [2]) were 67.9 µM and 31.7 µM, respectively.
In the case of `COC(=O)c1cc2c(c(OC)c1-c1ccc(N(C)C(=O)[C@H](C)NC(=O)OC(C)(C)C)cc1)OCO2`, the IC50 in [1] amounted to 59.5 µM; with SK-HEP1 [2], 40.9 µM.
`COC(=O)c1cc2c(c(OC)c1-c1ccc(N(C)C(=O)CN)cc1)OCO2`: the IC50 (in [1]; in the series with SK-HEP1 [2]) was greater than 100 µM each time.
For `COc1c2c(cc(C(=O)Nc3ccccc3I)c1-c1ccc(N(C)C)cc1)OCO2`, the figures for the IC50 (in series [1]; with SK-HEP1 [2]) were 56.9 µM and 35.8 µM, respectively.
The corresponding values for `COC(=O)c1cc2c(c(OC)c1-c1ccc(N(C)S(=O)(=O)c3ccc([N+](=O)[O-])cc3)cc1)OCO2` are 69.3 µM and 34.2 µM.
`CCN(CC)CCNC(=O)c1cc2c(c(OC)c1-c1ccc(N(C)C)cc1)OCO2`: the IC50 (in series [1]; with SK-HEP1 [2]) was greater than 100 µM in each case.
`COC(=O)c1cc2c(c(OC)c1-c1ccc(N(C)S(=O)(=O)c3ccccc3)cc1)OCO2`: the IC50 in series [1] came out at 61.4 µM; in the series on SK-HEP1 [2] it was 26.7 µM; in the series with HeLa [3], 19.5 µM.
For `COC(=O)c1cc2c(c(OC)c1-c1ccc(N(C)C(=O)c3ccccc3)cc1)OCO2`, the IC50 came to 48.4 µM in [1], 19.4 µM in the series on SK-HEP1 [2] and 13 µM in the series on HeLa [3]. Besides, the result in the series on HepG2, with HeLa [4], with MHCC97 [5], with Huh-7 and in the series with SK-HEP1 [6] was Active.
`CCn1cc(C(=O)O)c(=O)c2cc(F)c(N3CCNCC3)nc21` [ENOXACIN]: the result with SK-HEP1 [7], with MHCC97 [9], with SK-HEP1 [10], with MHCC97 [11], with SK-HEP1 [12] and in the series with SK-HEP1 [14] was Active. For the same molecule, the result in the series on MHCC97 [16] was Active. The IC50 was found to be 72.4 µM in [1], 25 µM with SK-HEP1 [2] and 25.8 µM in the series with HeLa [3]. Besides, the outcome in the series on SK-HEP1 [8], in the series on MHCC97 [13] and in the series on SK-HEP1 [15] was inactive.
Consider `COC(=O)c1cc2c(c(OC)c1-c1ccc(N(C)C(=O)CNC(=O)OC(C)(C)C)cc1)OCO2`, for which the figures for the IC50 (in series [1]; in the series with SK-HEP1 [2]) were 63.2 µM and 39.6 µM, respectively.
In the case of `COC(=O)c1cc2c(c(OC)c1-c1ccc(N(C)C)cc1)OCO2`, the IC50 in [1] stood at 68.5 µM; with SK-HEP1 [2], 29.9 µM.
`COC(=O)c1cc2c(c(OC)c1-c1ccc(N(C)C(=O)CCCCCNC(=O)CCCC[C@@H]3SC[C@@H]4NC(=O)N[C@@H]43)cc1)OCO2`: the outcome (in series [17]; in the series listed under Homo sapiens) was inactive. Moreover, in the series on SK-HEP1 [18], the inhibition entry is “Active”. Moreover, the outcome in the series on SK-HEP1 [19] was Active.
On to `COC(=O)c1cc2c(c(OC)c1-c1ccc(N(C)C(=O)[C@H](C)N)cc1)OCO2`, for which the IC50 in series [1] is 74.2 µM; with SK-HEP1 [2], 64.7 µM.
In the case of `CNc1ccc(-c2c(C(=O)OC)cc3c(c2OC)OCO3)cc1Cl`, the figures for the IC50 (in [1]; in the series with SK-HEP1 [2]) were 50.3 µM and 22.7 µM, respectively.
For the molecule `COC(=O)c1cc2c(c(OC)c1-c1ccc(N(C)S(C)(=O)=O)cc1)OCO2`, the values for the IC50 (in series [1]; with SK-HEP1 [2]) were 75.9 µM and 47 µM, respectively.
`CNCC(=O)N(C)c1ccc(-c2c(C(=O)OC)cc3c(c2OC)OCO3)cc1`: the IC50 (in [1]; in the series with SK-HEP1 [2]) was greater than 100 µM throughout.
`CNC(=O)c1cc(Oc2ccc(NC(=O)Nc3ccc(Cl)c(C(F)(F)F)c3)cc2)ccn1` [SORAFENIB]: the result with MHCC97 [20], with MHCC97 [9], in the series with MHCC97 [11] and in the series with MHCC97 [16] was Active. The Activity result in [21] is “Toxic”.
On to `COC(=O)c1cc2c(c(OC)c1-c1ccc(N(C)C(=O)CN(C)C(=O)OC(C)(C)C)cc1)OCO2`, for which the values for the IC50 (in [1]; with SK-HEP1 [2]) were greater than 100 µM and 89.7 µM, respectively.
Regarding `COC(=O)c1cc2c(c(OC)c1-c1ccc(N(C)S(=O)(=O)c3ccc(Br)cc3)cc1)OCO2`, the IC50 in series [1] stood at 62.4 µM; with SK-HEP1 [2], 28.7 µM.
The corresponding values for `COc1cccc(NC(=O)c2cc3c(c(OC)c2-c2ccc(N(C)C)cc2)OCO3)c1` are 64.4 µM and 31.6 µM.
For `COc1c2c(cc(C(=O)NCc3ccccc3)c1-c1ccc(N(C)C)cc1)OCO2`, the IC50 in series [1] was 56.4 µM; in the series with SK-HEP1 [2], 23.6 µM; in the series with HeLa [3] it was 21.9 µM.
On to `COc1c2c(cc(C(=O)Nc3ccccc3)c1-c1ccc(N(C)C)cc1)OCO2`, for which the IC50 in series [1] amounted to 58.5 µM; in the series with SK-HEP1 [2], 38.4 µM.
Regarding `CNc1ccc(-c2c(C(=O)OC)cc3c(c2OC)OCO3)cc1`, the results for the IC50 (in series [1]; with SK-HEP1 [2]; in the series on HeLa [3]) were 67.2 µM, 24.4 µM and 15.6 µM, respectively. Also, in the series with SK-HEP1 [18], the inhibition result was “Active”. Also, the result in the series on SK-HEP1 [19] was Active.
